From patent publication EP4559922A1, “ANTIHISTAMINE COMPOUND, PREPARATION METHOD THEREFOR AND USE THEREOF” (HC Synthetic Pharmaceutical Co., Ltd., priority 2022, dated 2024)
Converted amounts (≈) assume the structure as drawn.

Key:
[1] = Accelerated stability test; type: physicochemical; conditions: 40°C ± 2°C, relative humidity 75% ± 5%; for remaining at 730 h / remaining at 1460 h / remaining at 2190 h / remaining at 4380 h: storage 75% relative humidity, read-out: Content
[2] = Solubility of the compounds in water, methanol and isopropanol; type: physicochemical; conditions: for Solubility in Water: solvent water
Protocol: The solubility in water, methanol, and isopropanol of the compounds of the present disclosure and the comparative compounds were measured separately.

[3] = tested on: isolated ileal smooth muscle of guinea pigs; assay: Effect on muscle tone of isolated ileal smooth muscle of guinea pigs (no histamine added); conditions: X±s; for Antispasmodic percentage: relative to tone before adding compound, n = 8, 5 min; for Smooth muscle tone After administration: 5 minutes after adding drug
Protocol: (§1) The guinea pig was knocked unconscious with a wooden stick, and the abdomen was immediately dissected to separate the ileum about 15 cm in length. The contents of the intestinal segment were flushed with Tyrode's solution and placed in Tyrode's solution at a constant temperature of 37°C for later use, and oxygen was supplied simultaneously. The experimental intestinal tract (1 cm in length) was cut and placed into 20 ml of Tyrode's solution at a constant temperature of 37°C with a continuous oxygen supply. One end of the intestine was fixed on the ventilation hook and the other end was connected to the muscle tone transducer and led to the computer interface. The muscle tone value of the ileal smooth muscle was recorded with a BL system. The experiment was carried out after the intestinal segment contraction became stable.
After the ileum contraction curve stabilized, the tone values before adding the drug were recorded, then the drug or DMSO was added, and the average tone value of the ileum contraction curve at that point was recorded 5 minutes later. The operation was repeated 8 times. The antispasmodic percentage was calculated according to the following formula. Antispasmodic percentage =; (Tone value before adding subject compound−Tone value after adding subject compound)/(Tone value before adding subject compound); × 100% [formula]

[4] = tested on: histamine-induced asthma in guinea pigs; assay: Antiasthmatic effect on histamine-induced asthma in guinea pigs (latency period); type: in vivo; conditions: X±s, n = 5; for Post-administration latency period: 1 mg/kg oral gavage, sixty minutes after administration, histamine hydrochloride spray, capped at 8 minutes
Protocol: The guinea pigs were placed in a polymethyl methacrylate bell jar and a histamine hydrochloride solution was sprayed ultrasonically (0.8 mg/mL) for 40 seconds. The time point at which the guinea pigs developed asthma was recorded. The time of convulsion and fall was taken as the latency period. Guinea pigs with a latency period exceeding 180 seconds were not selected. […] The guinea pigs were administered by oral gavage at a dose of 2 mL/kg·bw. Sixty minutes after the administration, the guinea pigs were placed in bell jars, and histamine hydrochloride solution was sprayed under the same conditions as in the previous selection. The latency period for the onset of asthma was recorded. […] The results were processed statistically.

[5] = Antagonism of histamine-induced contraction of isolated ileal smooth muscle of guinea pigs; conditions: relative to tone after adding histamine; x±s, n = 8; 3 min
Protocol: as §1
(§2) After the ileal peristalsis curve stabilized, the tone values before adding the compound were recorded, and then 0.05 mL of histamine was added. […] The operation was repeated 8 times. The antispasmodic percentage was calculated using the following equation. Antispasmodic percentage =; (Tone value after adding histamine−Tone value after adding subject compound)/(Tone value after adding histamine) × 100% [formula]

histamine = assay: as above; conditions: x±s, n = 8; for Smooth muscle tone After administration: 3 minutes after adding 0.05 mL compound following histamine
Protocol: as §1, §2

Row | Content ([1]; Month 0) [%] | Description ([1]; Month 0) | Related substances ([1]; Month 0) [%] | Description ([1]; Month 1) | Related substances ([1]; Month 1) [%] | Description ([1]; Month 2) | Related substances ([1]; Month 2) [%] | Description ([1]; Month 3) | Related substances ([1]; Month 3) [%] | Description ([1]; Month 6) | Related substances ([1]; Month 6) [%] | remaining at 730 h ([1]; Month 1) [%] | remaining at 1460 h ([1]; Month 2) [%] | remaining at 2190 h ([1]; Month 3) [%] | remaining at 4380 h ([1]; Month 6) [%] | SMILES | Antispasmodic percentage ([3]; 5 min) [%] | Post-administration latency period [4] [s] | Antispasmodic percentage [5] [%] | Smooth muscle tone After administration ([3]; n = 8) [g] | Smooth muscle tone After administration (histamine) [g] | further results
1 | 99.7 | White powder | 0.03 | White powder | 0.05 | White powder | 0.10 | White powder | 0.15 | White powder | 0.34 | 99.7 | 99.6 | 99.5 | 99.2 | O=C1Cc2ccccc2C(=C2CCN(CCCOP(=O)(O)O)CC2)c2ccsc21 [Compound III-3] | 30.23±17.82 | 368.01 ± 50.67 | 66.66±15.49 |  |  | Solubility in Isopropanol ([2]; solvent isopropanol): 24 mg/mL (≈ 55.4 mM); Solubility in Water [2]: 20 mg/mL (≈ 46.1 mM)
2 |  |  |  |  |  |  |  |  |  |  |  |  |  |  |  | O=C1Cc2ccccc2C(=C2CCN(CCOCOP(=O)(O)O)CC2)c2ccsc21 [Compound III-6] |  | 370.03 ± 52.11 | 64.43±17.18 | 1.14 ± 0.30 | 1.22 ± 0.23 | Smooth muscle tone Before administration ([3]; baseline, n = 8): 1.71 ± 0.24 g; Antispasmodic percentage [3]: 33.33±19.04%; Pre-administration latency period ([4]; baseline before administration, histamine hydrochloride 0.8 mg/mL sprayed 40 seconds): 98.68 ± 49.22 s; Smooth muscle tone After addition of histamine (histamine; after 0.05 mL histamine, before compound): 3.43 ± 0.92 g; Smooth muscle tone Before administration (histamine; baseline before histamine): 1.78 ± 0.20 g
3 | 99.7 | White powder | 0.03 | White powder | 0.05 | White powder | 0.09 | White powder | 0.12 | White powder | 0.24 | 99.7 | 99.6 | 99.6 | 99.4 | O=C1Cc2ccccc2C(=C2CCN(COP(=O)(O)O)CC2)c2ccsc21 [Compound IV-1] | 33.72±18.32 | 368.83 ± 49.03 | 66.28±18.26 | 1.14 ± 0.31 | 1.18 ± 0.24 | 
4 | 99.7 | White powder | 0.03 | White powder | 0.05 | White powder | 0.09 | White powder | 0.12 | White powder | 0.25 | 99.7 | 99.6 | 99.6 | 99.4 | O=C1Cc2ccccc2C(=C2CCN(CCCCOP(=O)(O)O)CC2)c2ccsc21 [Compound IV-4] | 30.59±19.00 | 376.89 ± 51.43 | 65.40±19.07 | 1.18 ± 0.26 | 1.19 ± 0.21 | 
5 |  |  |  |  |  |  |  |  |  |  |  |  |  |  |  | O=C1Cc2ccccc2C(=C2CCN(CCCCCOP(=O)(O)O)CC2)c2ccsc21 [Compound IV-5] | 33.72±19.05 | 377.11 ± 50.43 | 65.61±19.34 | 1.14 ± 0.30 | 1.20 ± 0.22 | 
6 |  |  |  |  |  |  |  |  |  |  |  |  |  |  |  | O=C1Cc2ccccc2C(=C2CCN(CCCOCOP(=O)(O)O)CC2)c2ccsc21 [Compound IV-7] | 33.52±19.74 | 373.33 ± 52.76 | 65.99±19.08 | 1.15 ± 0.25 | 1.17 ± 0.22 | 
7 | 99.7 | White powder | 0.03 | White powder | 0.04 | White powder | 0.05 | White powder | 0.06 | White powder | 0.09 | 99.7 | 99.7 | 99.6 | 99.6 | O=C1Cc2ccccc2C(=C2CCN(CCCCOCOP(=O)(O)O)CC2)c2ccsc21 [Compound IV-8] | 32.94±19.45 | 370.23 ± 50.29 | 65.01±18.56 | 1.14 ± 0.31 | 1.20 ± 0.25 | 
8 |  |  |  |  |  |  |  |  |  |  |  |  |  |  |  | O=C1Cc2ccccc2C(=C2CCN(CCCCCOCOP(=O)(O)O)CC2)c2ccsc21 [Compound IV-9] | 32.95±19.04 | 369.11 ± 49.40 | 66.57±18.66 | 1.16 ± 0.28 | 1.15 ± 0.26 | 
9 |  |  |  |  |  |  |  |  |  |  |  |  |  |  |  | CN1CCC(=C2c3ccccc3CC(=O)c3sccc32)CC1 [Ketotifen] |  |  |  |  |  | Solubility in Water [2]: Practically insoluble

Row | SMILES | Content ([1]; Month 0) [%] | Description ([1]; Month 0) | Related substances ([1]; Month 0) [%] | Description ([1]; Month 1) | Related substances ([1]; Month 1) [%] | Description ([1]; Month 2) | Related substances ([1]; Month 2) [%] | Description ([1]; Month 3) | Related substances ([1]; Month 3) [%] | Description ([1]; Month 6) | Related substances ([1]; Month 6) [%] | remaining at 730 h ([1]; Month 1) [%] | remaining at 1460 h ([1]; Month 2) [%] | remaining at 2190 h ([1]; Month 3) [%] | remaining at 4380 h ([1]; Month 6) [%] | Antispasmodic percentage ([3]; 5 min) [%] | Post-administration latency period [4] [s] | Antispasmodic percentage [5] [%] | Smooth muscle tone After administration ([3]; n = 8) [g] | Smooth muscle tone After administration (histamine) [g] | further results
10 | O=C1Cc2ccccc2C(=C2CCN(CCOP(=O)(O)O)CC2)c2ccsc21 [Compound IV-2] | 99.7 | White powder | 0.03 | White powder | 0.04 | White powder | 0.04 | White powder | 0.06 | White powder | 0.09 | 99.7 | 99.7 | 99.6 | 99.6 |  | 380.27 ± 50.25 | 66.95±17.07 | 1.19 ± 0.31 | 1.14 ± 0.23 | Antispasmodic percentage [3]: 30.40±18.50%
11 | O=C1Cc2ccccc2C(=C2CCN(CCOCOP(=O)(O)O)CC2)c2ccsc21 [Compound IV-6] | 99.7 | White powder | 0.03 | White powder | 0.05 | White powder | 0.09 | White powder | 0.12 | White powder | 0.25 | 99.7 | 99.6 | 99.6 | 99.4 | 31.17±19.54 | 370.56 ± 50.81 | 66.56±19.45 | 1.17 ± 0.28 | 1.15 ± 0.20 | 
